According to ChEMBL document CHEMBL1201862, “PubChem BioAssay data set” (2004):
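Cells were grown in 96-well plates and exposed to each compound for 48 hours at five concentrations; endpoints were interpolated linearly between bracketing concentrations, or set to the highest concentration if not reached. GI50 marks 50% less growth.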 Active and inactive are the calls of the source. Rule as the data show it: active = GI50 up to about 1.1 µM and inactive = higher.

Assays:
Assay in all cases: NCI tumour cell line growth inhibition, 48 h
SW-620 = system: SW-620
UO-31 = system: UO-31
OVCAR-8 = system: OVCAR-8
SF-539 = system: SF-539
SNB-75 = system: SNB-75
HL-60 = system: HL-60
OVCAR-5 = system: OVCAR-5
SK-MEL-2 = system: SK-MEL-2
HOP-92 = system: HOP-92
CCRF-CEM = system: CCRF-CEM
SNB-19 = system: SNB-19
HCT-15 = system: HCT-15
M14 = system: M14
EKVX = system: EKVX
MDA-MB-435 = system: MDA-MB-435
HT-29 = system: HT-29
UACC-62 = system: UACC-62
DU-145 = system: DU-145
NCI-H522 = system: NCI-H522
RPMI-8226 = system: RPMI-8226
NCI-H226 = system: NCI-H226
SR = system: SR
T47D = system: T47D
HOP-62 = system: HOP-62
BT-549 = system: BT-549
A498 = system: A498
LOX IMVI = system: LOX IMVI
SK-OV-3 = system: SK-OV-3
Malme-3M = system: Malme-3M
SF-295 = system: SF-295
NCI-H23 = system: NCI-H23
SK-MEL-5 = system: SK-MEL-5
SF-268 = system: SF-268
RXF 393 = system: RXF 393
COLO 205 = system: COLO 205
IGROV-1 = system: IGROV-1
KM12 = system: KM12
MDA-N = system: MDA-N
MCF7 = system: MCF7
U-251 = system: U-251
Hs-578T = system: Hs-578T
NCI/ADR-RES = system: NCI/ADR-RES
OVCAR-4 = system: OVCAR-4
MDA-MB-231 = system: MDA-MB-231
786-0 = system: 786-0
CAKI-1 = system: CAKI-1
ACHN = system: ACHN
PC-3 = system: PC-3
MOLT-4 = system: MOLT-4
K562 = system: K562
SN12C = system: SN12C
OVCAR-3 = system: OVCAR-3
HCT-116 = system: HCT-116
SK-MEL-28 = system: SK-MEL-28
A549 = system: A549
UACC-257 = system: UACC-257
NCI-H460 = system: NCI-H460
HCC 2998 = system: HCC 2998
TK-10 = system: TK-10

Measured: GI50

COC(=O)C[C@H](COCc1ccccc1)NC(=O)C[C@H](COCc1ccccc1)NC(=O)C[C@H](COCc1ccccc1)NC(=O)OC(C)(C)C
> 100 µM: HCT-15
inactive: SW-620 > 100 µM | UO-31 > 100 µM | OVCAR-8 23.8 µM | SF-539 95.3 µM | SNB-75 13.1 µM | HL-60 > 100 µM | OVCAR-5 > 100 µM | SK-MEL-2 > 100 µM | HOP-92 24.8 µM | CCRF-CEM > 100 µM | SNB-19 > 100 µM | M14 54.6 µM | EKVX 25.8 µM | MDA-MB-435 32.8 µM | HT-29 72.8 µM | UACC-62 > 100 µM | DU-145 23.3 µM | NCI-H522 78 µM | RPMI-8226 > 100 µM | NCI-H226 > 100 µM | SR 35.3 µM | T47D 24.7 µM | HOP-62 16.9 µM | BT-549 > 100 µM | A498 24 µM | LOX IMVI 58.7 µM | SK-OV-3 60.8 µM | Malme-3M > 100 µM | SF-295 88.9 µM | NCI-H23 > 100 µM | SK-MEL-5 > 100 µM | SF-268 41.5 µM | RXF 393 20.9 µM | COLO 205 > 100 µM | IGROV-1 > 100 µM | KM12 > 100 µM | MDA-N > 100 µM | MCF7 11.8 µM | U-251 94 µM | Hs-578T 34.6 µM | NCI/ADR-RES > 100 µM | OVCAR-4 3.97 µM | MDA-MB-231 81.8 µM | 786-0 18 µM | CAKI-1 > 100 µM | ACHN 80.9 µM | PC-3 13.2 µM | MOLT-4 > 100 µM | K562 > 100 µM | SN12C 41.4 µM | OVCAR-3 > 100 µM | HCT-116 14.5 µM | SK-MEL-28 73.1 µM | A549 38.5 µM

O=C1c2ccccc2C2(c3ccc(Cl)cc3)NCc3ccccc3CN12 (stereo unspecified)
21.9 µM: HCT-15
inactive: SW-620 37.2 µM | UO-31 22.5 µM | OVCAR-8 23.1 µM | SF-539 16.3 µM | SNB-75 52.8 µM | HL-60 14 µM | OVCAR-5 21.7 µM | SK-MEL-2 13.7 µM | HOP-92 19.7 µM | CCRF-CEM 25.9 µM | SNB-19 17 µM | M14 18 µM | UACC-257 33 µM | EKVX 20.6 µM | MDA-MB-435 26.7 µM | HT-29 15.2 µM | UACC-62 17.3 µM | DU-145 21.3 µM | RPMI-8226 21.8 µM | SR 24.7 µM | T47D 16.4 µM | HOP-62 15.5 µM | BT-549 43.1 µM | NCI-H460 27.9 µM | HCC 2998 20.4 µM | A498 19.4 µM | LOX IMVI 16.2 µM | SK-OV-3 31.2 µM | SF-295 18.3 µM | NCI-H23 17.7 µM | SK-MEL-5 16 µM | SF-268 35.1 µM | RXF 393 16.1 µM | COLO 205 15.1 µM | TK-10 31.3 µM | IGROV-1 24.2 µM | KM12 21.9 µM | MDA-N 56 µM | MCF7 17.4 µM | U-251 28.6 µM | Hs-578T 22.5 µM | NCI/ADR-RES 14 µM | OVCAR-4 23.7 µM | MDA-MB-231 57.4 µM | 786-0 13.6 µM | CAKI-1 63 µM | ACHN 21.6 µM | PC-3 16.1 µM | MOLT-4 24.8 µM | K562 32.9 µM | SN12C 43.4 µM | OVCAR-3 13.4 µM | HCT-116 10.8 µM | SK-MEL-28 25.2 µM | A549 18.5 µM
